From patent US20240293358A1, “COMPOSITION COMPRISING PPAR-MODULATOR AND AN UROLITHIN DERIVATIVE AND USES THEREOF” (Universite de Bordeaux, priority 0001, published 2024)

System: Costello (CS) zebrafish injected with HRASV12 plasmid
Assay: Phenotype analysis (survival, developmental defects) of Costello zebrafish embryos
Format: in vivo, Zebrafish (Danio rerio)
Conditions: HRASG12V-embryos; for survival rate: single agent 20 μM by bathing 1 dpf to 5 dpf, 4 days of treatment; for number of defective individuals among alive embryo: single agent 20 μM, vehicle (DMSO) 60%
Procedure: Zebrafish (Danio rerio) embryos were obtained from natural spawnings and raised in embryo medium (E3) (97) at 28.5° C. Embryos were staged as described previously [46]. Starting 5 days post-fertilisation (dpf), embryos were fed daily. […] 1 nl of 12.5 ng/μl of GFP-H-RASV12 plasmid and 12.5 ng/μl of T2 transposase mRNA were co-injected in the first cell of zebrafish eggs. Control embryos were injected with the same volume of PBS. H-RASV12 was expressed in zebrafish embryo under heat shock, 30 mn at 37° C. at 1 day post fertilization (dpf) and embryo expressing GFP at 2 dpf were selected for the study.
The embryo injected with the HRASV12 plasmid were treated daily by bathing from 1 dpf to 5 dpf with respectively 20 μM bezafibrate, 20 μM urolithin A, 20 μM bezafibrate+20 μM urolithin A, 10 μM bezafibrate+5 μM urolithin A, 5 μM bezafibrate+5 μM urolithin A. Control embryos were treated with the same volume of DMSO corresponding to 0.2% of DMSO. The imaging and phenotype analysis of mortality and defects of appearance after plasmid injection were performed on alive embryo anesthetized using ethyl 3-aminobenzoate methanesulfonate, MS-222 (Sigma, Cat. #A-5040) at 200 mg/L at 2 days post fertilization, 3 dpf, 4 dpf and 5 dpf using a ZEISS axiocam stereomicroscope (ZEISS, Germany).
Embryos injected with HRASV12 plasmid were selected at 2 days post fertilization (dpf) following their GFP^+/+ expression. HRASV12 plasmid was activated under a heat shock of embryos at 37° C. for 30 minutes. Embryos were observed daily from 2 dpf to 5 dpf in order to analyze the effect of HRASV12 overexpression on their physiological development (FIG. 1A, 1B).

Structure (SMILES)	survival rate	number of defective individuals among alive embryo [%]
CC(C)(Oc1ccc(CCNC(=O)c2ccc(Cl)cc2)cc1)C(=O)O [bezafibrate, 2-(4-{2-[(4-chlorobenzoyl)amino]ethyl}phenoxy)-2-methylpropanoic acid]	up to 70%	45
O=c1oc2cc(O)ccc2c2ccc(O)cc12 [urolithin A]	≤ 65%	43
